Test results: patent US8623859B2, “Bradykinin B1 antagonists” (Evotec AG, priority 2008, dated 2014)
Structures can show the parent of a compound that is named as a salt.

What follows are compounds tested against T1, human B1 (Homo sapiens, UniProt P46663) (assay: Calcium flux assay for Bradykinin B1 antagonist, CHO-K1 cell line expressing human B1). Conditions: CHO-K1 cells expressing human B1, agonist Lys-(Des-Arg)-Bradykinin, read-out: Potency (IC50 value against human B1).
T1 construct: host or cells: CHO-K1
T1 sequence (P46663 1-353): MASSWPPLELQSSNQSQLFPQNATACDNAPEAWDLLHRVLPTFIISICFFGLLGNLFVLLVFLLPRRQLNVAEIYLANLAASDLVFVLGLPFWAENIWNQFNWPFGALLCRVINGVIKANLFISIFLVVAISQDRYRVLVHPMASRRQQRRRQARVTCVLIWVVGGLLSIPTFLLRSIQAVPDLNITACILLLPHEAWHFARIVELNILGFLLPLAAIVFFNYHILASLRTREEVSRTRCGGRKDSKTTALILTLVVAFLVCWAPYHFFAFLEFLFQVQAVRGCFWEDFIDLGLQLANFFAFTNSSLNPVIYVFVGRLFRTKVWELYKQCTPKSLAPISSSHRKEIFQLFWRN
Assay type: cell-based
Procedure, shortened: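 CHO-K1 cells expressing human B1, loaded with 5 μM Fluo-4AM (2 h, 37° C) in HEPES buffer pH 7.4 with probenecid and 0.1% BSA, were preincubated 30 min at 25° C with compound (8 concentrations, triplicate, 1% DMSO) before B1 agonist addition. Ca2+ fluorescence monitored at 538 nm; background-normalized integrated values plotted against log antagonist concentration.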

Row | Structure (SMILES) | IC50 [nM]
1 | COc1cc(C)c(S(=O)(=O)N(C)Cc2nnc(C(=O)N(C)Cc3ccc(CN4CCCC4)cc3)o2)c(C)c1 [Ex 268, 5-({[(4-Methoxy-2,6-dimethylphenyl)sulfonyl](methyl)amino}methyl)-N-methyl-N-[4-(pyrrolidin-1-ylmethyl)benzyl]-1,3,4-oxadiazole-2-carboxamide trifluoroacetate] | 10 to 100
2 | COc1cc(C)c(S(=O)(=O)N(C)Cc2nnc(C(=O)NCCc3ccc(C4=NCCN4)cc3)o2)c(C)c1 [Ex 269, N-{2-[4-(4,5-Dihydro-1H-imidazol-2-yl)phenyl]ethyl}-5-({[(4-methoxy-2,6-dimethylphenyl)sulfonyl](methyl)amino}methyl)-1,3,4-oxadiazole-2-carboxamide trifluoroacetate] | < 10
3 | COc1cc(C)c(S(=O)(=O)N(C)Cc2nnc(C(=O)N3CCN(C4CCN(C)CC4)CC3)o2)c(C)c1 [Ex 270, 4-Methoxy-N,2,6-trimethyl-N-[(5-{[4-(1-methylpiperidin-4-yl)piperazin-1-yl]carbonyl}-1,3,4-oxadiazol-2-yl)methyl]benzenesulfonamide trifluoroacetamide] | 100 to 1000
4 | COc1cc(C)c(S(=O)(=O)N(C)Cc2nnc(C(=O)N3CCN(CC4CCCN(C)C4)CC3)o2)c(C)c1 (centres unmarked) [Ex 278, 4-Methoxy-N,2,6-trimethyl-N-{[5-({4-[(1-methylpiperidin-3-yl)methyl]piperazin-1-yl}carbonyl)-1,3,4-oxadiazol-2-yl]methyl}benzenesulfonamide] | 100 to 1000
5 | COc1cc(C)c(S(=O)(=O)N(C)Cc2nnc(C(=O)N3CCN(CCCN(C)C)CC3)o2)c(C)c1 [Ex 279, N-{[5-({4-[3-(Dimethylamino)propyl]piperazin-1-yl}carbonyl)-1,3,4-oxadiazol-2-yl]methyl}-4-methoxy-N,2,6-trimethylbenzenesulfonamide] | 10 to 100
6 | COc1cc(C)c(S(=O)(=O)N(Cc2nnc(C(=O)N(C)Cc3ccc(CN4CCCC4)cc3)o2)C2CC2)c(C)c1 [Ex 281, 5-({Cyclopropyl[(4-methoxy-2,6-dimethylphenyl)sulfonyl]amino}methyl)-N-methyl-N-[4-(pyrrolidin-1-ylmethyl)benzyl]-1,3,4-oxadiazole-2-carboxamide] | < 10
7 | COc1cc(C)c(S(=O)(=O)N(C)Cc2nnc(C(=O)N(C)Cc3ccc(CN4CCC(OC)C4)cc3)o2)c(C)c1 (centres unmarked) [Ex 282, 5-({[(4-Methoxy-2,6-dimethylphenyl)sulfonyl](methyl)amino}methyl)-N-{4-[(3-methoxypyrrolidin-1-yl)methyl]benzyl}-N-methyl-1,3,4-oxadiazole-2-carboxamide] | 100 to 1000
8 | COc1cc(C)c(S(=O)(=O)N(C)Cc2nnc(C(=O)N(C)Cc3ccc(CN4CCC(OC)CC4)cc3)o2)c(C)c1 [Ex 283, 5-({[(4-Methoxy-2,6-dimethylphenyl)sulfonyl](methyl)amino}methyl)-N-{4-[(4-methoxypiperidin-1-yl)methyl]benzyl}-N-methyl-1,3,4-oxadiazole-2-carboxamide] | 10 to 100
9 | COc1cc(C)c(S(=O)(=O)N(C)Cc2nnc(C(=O)N(C)Cc3ccc(CN4CCCC(OC)C4)cc3)o2)c(C)c1 (centres unmarked) [Ex 284, 5-({[(4-Methoxy-2,6-dimethylphenyl)sulfonyl](methyl)amino}methyl)-N-{4-[(3-methoxypiperidin-1-yl)methyl]benzyl}-N-methyl-1,3,4-oxadiazole-2-carboxamide] | 100 to 1000
10 | COc1cc(C)c(S(=O)(=O)N(C)Cc2nnc(C(=O)N(C)Cc3ccc(CN4CCC(N(C)C)C4)cc3)o2)c(C)c1 (centres unmarked) [Ex 285, N-(4-{[3-(Dimethylamino)pyrrolidin-1-yl]methyl}benzyl)-5-({[(4-methoxy-2,6-dimethylphenyl)sulfonyl](methyl)amino}methyl)-N-methyl-1,3,4-oxadiazole-2-carboxamide] | 100 to 1000
11 | COc1cc(C)c(S(=O)(=O)N(C)Cc2nnc(C(=O)N(C)Cc3nc(CN4CCCC4)cs3)o2)c(C)c1 [Ex 286, 5-({[(4-Methoxy-2,6-dimethylphenyl)sulfonyl](methyl)amino}methyl)-N-methyl-N-{[4-(pyrrolidin-1-ylmethyl)-1,3-thiazol-2-yl]methyl}-1,3,4-oxadiazole-2-carboxamide] | 100 to 1000
12 | COc1cc(C)c(S(=O)(=O)N(C)Cc2nnc(C(=O)N(C)Cc3ccc(CN4CC(OC)C4)cc3)o2)c(C)c1 [Ex 287, N-{4-[(3-Methoxyazetidin-1-yl)methyl]benzyl}-5-({[(4-methoxy-2,6-dimethylphenyl)sulfonyl](methyl)amino}methyl)-N-methyl-1,3,4-oxadiazole-2-carboxamide] | 100 to 1000

Now from value to compound:

Row | IC50 [nM] | Structure (SMILES)
13 | 10 to 100 | COc1cc(C)c(S(=O)(=O)N(Cc2nnc(C(=O)N3CCN(C4CCN(C)CC4)CC3)o2)C2CC2)c(C)c1 [Ex 271, N-Cyclopropyl-4-methoxy-2,6-dimethyl-N-[(5-{[4-(1-methylpiperidin-4-yl)piperazin-1-yl]carbonyl}-1,3,4-oxadiazol-2-yl)methyl]benzenesulfonamide]
14 | < 10 | COc1cc(C)c(S(=O)(=O)N(Cc2nnc(C(=O)N3CCN(CC4CCN(C)CC4)CC3)o2)C2CC2)c(C)c1 [Ex 272, N-Cyclopropyl-4-methoxy-2,6-dimethyl-N-{[5-({4-[(1-methylpiperidin-4-yl)methyl]piperazin-1-yl}carbonyl)-1,3,4-oxadiazol-2-yl]methyl}benzenesulfonamide]
15 | < 10 | COc1cc(C)c(S(=O)(=O)N(Cc2nnc(C(=O)N3CCN(CCCN4CCCC4)CC3)o2)C2CC2)c(C)c1 [Ex 273, N-Cyclopropyl-4-methoxy-2,6-dimethyl-N-[(5-{[4-(3-pyrrolidin-1-ylpropyl)piperazin-1-yl]carbonyl}-1,3,4-oxadiazol-2-yl)methyl]benzenesulfonamide]
16 | < 10 | COc1cc(C)c(S(=O)(=O)N(Cc2nnc(C(=O)N3CCC(CCN4CCCC4)CC3)o2)C2CC2)c(C)c1 [Ex 274, N-Cyclopropyl-4-methoxy-2,6-dimethyl-N-[(5-{[4-(2-pyrrolidin-1-ylethyl)piperidin-1-yl]carbonyl}-1,3,4-oxadiazol-2-yl)methyl]benzenesulfonamide]
17 | 10 to 100 | COc1cc(C)c(S(=O)(=O)N(Cc2nnc(C(=O)N3CCN(CC4CCCN(C)C4)CC3)o2)C2CC2)c(C)c1 (centres unmarked) [Ex 275, N-Cyclopropyl-4-methoxy-2,6-dimethyl-N-{[5-({4-[(1-methylpiperidin-3-yl)methyl]piperazin-1-yl}carbonyl)-1,3,4-oxadiazol-2-yl]methyl}benzenesulfonamide]
18 | 10 to 100 | COc1cc(C)c(S(=O)(=O)N(Cc2nnc(C(=O)N3CCN(CCCN(C)C)CC3)o2)C2CC2)c(C)c1 [Ex 276, N-Cyclopropyl-N-{[5-({4-[3-(dimethylamino)propyl]piperazin-1-yl}carbonyl)-1,3,4-oxadiazol-2-yl]methyl}-4-methoxy-2,6-dimethylbenzenesulfonamide]
19 | 10 to 100 | COc1cc(C)c(S(=O)(=O)N(Cc2nnc(C(=O)N3CCN(CCN4CCCC4)CC3)o2)C2CC2)c(C)c1 [Ex 277, N-Cyclopropyl-4-methoxy-2,6-dimethyl-N-[(5-{[4-(2-pyrrolidin-1-ylethyl)piperazin-1-yl]carbonyl}-1,3,4-oxadiazol-2-yl)methyl]benzenesulfonamide]
20 | 10 to 100 | COc1cc(C)c(S(=O)(=O)N(C)Cc2nnc(C(=O)N3CCC(CCN4CCCC4)CC3)o2)c(C)c1 [Ex 280, 4-Methoxy-N,2,6-trimethyl-N-[(5-{[4-(2-pyrrolidin-1-ylethyl)piperidin-1-yl]carbonyl}-1,3,4-oxadiazol-2-yl)methyl]benzenesulfonamide]
